Here are results for 5 molecules from patent US9345786B2, “Maytansinoid derivatives” (priority 2013, dated 2016).

The structures appear in SMILES notation. Some results are limits rather than exact numbers.

For one assay, the system named is tubulin. The assay is described as follows: HTS-Tubulin Polymerization Assay Kit, tubulin polymerization in vitro. Type of assay: biochemical. The following applies: 1 μM solution, 10 μL + 100 μL 4 mg/ml tubulin, 37° C., 405 nm; compared with the PBS buffer (FIG. 6). As for the experimental part: According to the instruction of kit, pre-warm the 96-well plate to 37° C. for 30 min prior to starting the assay. At the same time, the spectrophotometer (SpectraMax, Molecular Devices, USA) was set as follow: wavelength, 405 nm; temperature, 37° C.; Kinetic, 31 cycles of 1 reading per minute. Make cold G-PEM buffer (990 μL General Tubulin Buffer+10 μL GTP Stock) and keep it on ice. […] Immediately place the plate into the spectrophotometer and start recording using the kinetic setup described above. […] Nocodazole, the tubulin polymerization inhibitor, was set as a negative control. The metabolite Cys-3AA-MDC was prepared by reaction of 3AA-MDC with cysteine under the base DIEA in CH2Cl2. LC-MS (M+H^+) calc.: 964.5. found: 964.2. Rt: 12.97 min. The metabolite Lys-MCC-MDC was prepared by reaction of SMCC-MDC with lysine under the base DIEA in DMF. LC-MS (M+H^+) calc.: 1103.7. found: 1103.2. Rt: 13.00 and 13.18 min.

Assay [1] deals with multiple cancer cell lines. The settings on record: cited from earlier work.
The test system of assay [2] is human acute lymphoblastic leukemia line C.E.M. The settings on record: cited from earlier work.
Assay [3] concerns Lewis lung carcinoma and B-16 melanocarcinoma solid murine tumor models. The settings on record: mouse, in vivo; cited from earlier work.

As to `COc1cc2cc(c1Cl)N(C)C(=O)C[C@H](OC(=O)[C@H](C)N(C)C(=O)CCCCCN1C(=O)C=CC1=O)[C@]1(C)OC1[C@H](C)[C@@H]1C[C@@](O)(NC(=O)O1)[C@H](OC)/C=C/C=C(\C)C2` (stereo partly drawn) [3AA-MDC, N2′-deacetyl-N2′-(6-maleimido-1-oxo-hexyl)maytansine], the “inhibition of tubulin polymerization” value in the assay with tubulin is reported as “more significantly inhibited the tubulin polymerization”.

As to `COc1cc2cc(c1Cl)N(C)C(=O)C[C@H](OC(=O)C(C)C)[C@]1(C)O[C@@H]1[C@H](C)[C@@H]1C[C@@](O)(NC(=O)O1)[C@H](OC)/C=C/C=C(\C)C2` [Ansamitocin P3], the “efficacy against cancer cell lines” value in assay [1] is listed as “effective against multiple cancer cell lines”.

In the case of `CN[C@@H](C)C(=O)OC1CC(=O)N(C)c2cc(cc(OC)c2Cl)C/C(C)=C/C=C/C(OC)C2(O)CC(OC(=O)N2)C(C)C2OC12C` (stereo partly drawn) [Cys-3AA-MDC], the “inhibition of tubulin polymerization” value in the assay with tubulin is given as “more significantly inhibited the tubulin polymerization”.

Consider `COc1cc2cc(c1Cl)N(C)C(=O)C[C@H](OC(=O)[C@H](C)N(C)C(=O)CCSC1CC(=O)N(CC3CCC(C(=O)NCCCC[C@H](N)C(=O)O)CC3)C1=O)[C@]1(C)O[C@H]1[C@H](C)[C@@H]1C[C@@](O)(NC(=O)O1)[C@H](OC)/C=C/C=C(\C)C2` (stereo partly drawn) [Lys-mcc-MDC], for which, in the assay with tubulin, the “inhibition of tubulin polymerization” value was “more significantly inhibited the tubulin polymerization”.

For `COc1cc2cc(c1Cl)N(C)C(=O)C[C@H](OC(=O)[C@H](C)N(C)C(C)=O)[C@]1(C)O[C@H]1[C@H](C)[C@@H]1C[C@@](O)(NC(=O)O1)[C@H](OC)/C=C/C=C(\C)C2` [Maytansine], in assay [2], the “inhibitory concentration, as low as” value was ≥ 10^−7 μg/mL. The “inhibitory activity against tumors” value in assay [3] is on record as “significant inhibitory activity”.
